Test results taken from patent US20140179681A1, “METHODS AND COMPOSITIONS OF TARGETED DRUG DEVELOPMENT” (priority 2010, published 2014).
Counter-ions that a name gives are not always drawn. Values belong to the molecule of their own block, whether it stands above or below them.

Target: T1, EGFR (Homo sapiens, UniProt P00533)
T1 construct: host or cells: A431
Test: EGFR in-cell Western (ICW) screening protocol (EGFR inhibition assay)
Format: cell-based
Parameters: ICW 1 / ICW 2 / ICW Avg: unit not given here
Settings: for ICW Avg / ICW 1 / ICW 2: ICW assay; for ICW Avg: average of runs 1 and 2; for ICW 1: run 1; for ICW 2: run 2; for ICW Screen: Table 11, % Inhibition of EGF dependent EGFR phosphorylation in A431 cells, compound 125 μM in assay
Description: The following example describes general EGFR in-cell Western (ICW) screening protocol. Methods are according to Chen et al. (2005) Analytical Biochemistry 338, 136-142 (incorporated herein by reference), except as otherwise noted.
Cell Plates: A431 cells (ATCC # CRL-1555) were grown in Dulbecco's Modified Eagle Medium (DMEM; ATCC #30-2002) supplemented with 10% fetal bovine serum, 105 units/ml pen/strep (Invitrogen #15140155) and 2.1 mM L-glutamine (ATCC #30-2214). Cells were seeded into 96 well tissue culture plates (BD Falcon #353948) at a density of 30,000 cells per well and incubated at 37° C. with 5% CO2 overnight. Two cell plates were prepared for each compound plate.
Serum Starvation: The cells were serum starved prior to compound addition. The media was removed by aspiration and the cells washed with PBS (200 μl/well; Invitrogen #20012-027). The PBS was removed by aspiration and replaced with 200 μl of DMEM (ATCC #30-2002) supplemented with 105 units/ml pen/strep (Invitrogen #15140155) and 2.1 mM 1-glutamine (ATCC #30-2214). The cell plates were incubated at 37° C./5% CO2 for 2 hours.
Compound Plate Preparation: The test compounds were solvated in 100% DMSO (Sigma #472301-2L) at a concentration of 25 mM. Compounds found not to be completely soluble in 100% DMSO at 25 mM were diluted to 10 mM with 100% DMSO and TFA (Fluka #91699) added to a final concentration of 0.2%. 40 μl of test compound was added to the appropriate well of a 96 well plate (Falcon #351190). As controls, 6 μM EGFR kinase inhibitor PD168393 (EMD/Calbiochem #513033) in 100% DMSO and DMSO alone were added to various wells. Prepared compound plates were stored at RT prior to use and at 4° C. long term.
Compound Dilution Plate Preparation: 250 μl of DMEM supplemented with 1 mg/ml BSA (Sigma A3059-10G) was added to the appropriate wells of a 96 well plate to prepare the compound dilution plates. Using a multichannel pipettor, 1.25 μl of compound from the compound plate was transferred into the compound dilution plate.
Compound Addition: The starve media was removed from the cell plates by aspiration. Using a multichannel pipettor, the compound dilution plates were mixed by pipetting up and down three times. 50 μl of mixed, diluted compound was added to each of two rows/columns on each of two cell plates. The cell plates with compound were incubated at 37° C./5% CO2 for 4 hours.
EGF Addition: 20 ng/ml EGF (Upstate #01-107) was prepared in DMEM supplemented with 1 mg/ml BSA. 50 μl of 20 or 0 ng/ml EGF was added to the appropriate wells without the removal of compound. The compound and EGF were mixed by pipetting up and down three times. The plates were incubated at 37° C./5% CO2 for 10 min. In some screening assays the final concentration of EGF used for simulation was 6.6, or 12.5 ng/ml rather than 10 ng/ml.
Fixation and Triton Washing: The EGF+compound was removed by aspiration and 150 μl of freshly prepared Fixation Solution (1×PBS, Sigma P3813-10PK, and 4% Formaldehyde, Pierce #28908) was immediately added. The plates were incubated at RT for 20 min without shaking. The Fixation Solution was removed by aspiration and the plates washed four times with 200 μl each of Triton Wash Solution (1×PBS, Sigma P3813-10PK, and 0.1% Triton X-100, T8787-50ML) for 5 min with gentle shaking.
Blocking and Probing: Following the last Triton Wash, the plates were blocked for 1.5 h at RT with shaking using 150 μl of Odyssey Blocking Buffer (LI-COR #927-40000). The block was removed by aspiration and 50 μl of diluted primary Ab mix was added. The plates were incubated at 4° C. overnight with gentle shaking. The plates were washed five times with 200 μl of PBST (1×PBS, Sigma P3813-10PK, and 0.1% Tween-20, Sigma P9416-50ML) for 5 min each with shaking 50 μl of diluted secondary Ab mix was added and the plates incubated at RT for 1 h with shaking. The plates were washed 5× with 200 μl of PBST for 5 min each with shaking. […]

T1 sequence (P00533 25-1210): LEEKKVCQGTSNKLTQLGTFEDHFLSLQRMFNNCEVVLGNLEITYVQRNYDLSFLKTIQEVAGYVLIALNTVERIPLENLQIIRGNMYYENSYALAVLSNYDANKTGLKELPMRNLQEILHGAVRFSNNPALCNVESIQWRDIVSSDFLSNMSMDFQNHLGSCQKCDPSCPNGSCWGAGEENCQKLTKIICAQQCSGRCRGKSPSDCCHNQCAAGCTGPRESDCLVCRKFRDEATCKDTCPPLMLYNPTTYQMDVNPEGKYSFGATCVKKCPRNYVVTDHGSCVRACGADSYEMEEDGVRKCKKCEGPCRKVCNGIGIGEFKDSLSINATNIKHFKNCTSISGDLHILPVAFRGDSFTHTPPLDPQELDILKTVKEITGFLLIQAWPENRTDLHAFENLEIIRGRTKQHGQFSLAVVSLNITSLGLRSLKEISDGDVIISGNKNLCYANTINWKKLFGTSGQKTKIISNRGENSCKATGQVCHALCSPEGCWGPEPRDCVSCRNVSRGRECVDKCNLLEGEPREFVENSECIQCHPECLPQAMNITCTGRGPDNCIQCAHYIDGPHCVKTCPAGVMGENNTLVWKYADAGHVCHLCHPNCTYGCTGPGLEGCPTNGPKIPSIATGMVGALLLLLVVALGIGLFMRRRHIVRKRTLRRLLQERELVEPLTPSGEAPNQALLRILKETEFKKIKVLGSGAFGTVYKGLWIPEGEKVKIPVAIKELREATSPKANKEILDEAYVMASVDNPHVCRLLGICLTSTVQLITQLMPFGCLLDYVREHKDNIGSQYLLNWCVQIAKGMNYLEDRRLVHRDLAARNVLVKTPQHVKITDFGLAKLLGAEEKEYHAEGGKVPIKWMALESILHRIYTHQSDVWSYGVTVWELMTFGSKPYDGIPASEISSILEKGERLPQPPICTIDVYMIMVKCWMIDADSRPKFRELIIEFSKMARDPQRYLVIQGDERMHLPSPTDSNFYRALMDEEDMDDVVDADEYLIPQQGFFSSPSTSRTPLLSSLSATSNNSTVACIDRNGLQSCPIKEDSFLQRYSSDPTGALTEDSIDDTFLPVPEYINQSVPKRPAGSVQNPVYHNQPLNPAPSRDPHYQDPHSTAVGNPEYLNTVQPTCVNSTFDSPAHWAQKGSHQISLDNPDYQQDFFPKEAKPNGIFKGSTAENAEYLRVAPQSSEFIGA

SMILES: Cc1cc(C)c2nc(Nc3nc4c(c(=O)[nH]3)CCCC4)nc(C)c2c1 [11483 + TFA]
ICW Avg: 29.27 | ICW 1: 29.55 | ICW 2: 28.99

SMILES: Cc1cc(C)c2nc(Nc3nc(C)cc(=O)[nH]3)nc(C)c2c1 [11607 + TFA]
ICW Avg: 42.71 | ICW 1: 43.69 | ICW 2: 41.73

SMILES: Cc1cc2oc(=O)cc(CN3CCN(CCO)CC3)c2cc1C [AD4-10176]
ICW Screen: 42.066

SMILES: CCc1ccc2oc(=O)cc(CN3CCN(CCO)CC3)c2c1 [AD4-10178]
ICW Screen: 34.907

SMILES: CCc1nnc(NS(=O)(=O)c2ccc(NC(=S)NC(=O)C34CC5CC(CC(C5)C3)C4)cc2)s1 [AD4-11385]
ICW Screen (ICW Inhibition): 28.892

SMILES: COc1cc(NS(=O)(=O)c2ccc(NC(=S)NC(=O)CCc3ccccc3)cc2)nc(OC)n1 [AD4-11405]
ICW Screen (ICW Inhibition): 26.497

SMILES: CCN(c1ccccc1)S(=O)(=O)c1ccc(NC(=S)NC(=O)C2CCCCC2)cc1 [AD4-11407]
ICW Screen (ICW Inhibition): 27.585

SMILES: CN(Cc1ccccc1)S(=O)(=O)c1ccc(NC(=S)NC(=O)C2CCCCC2)cc1 [AD4-11410]
ICW Screen (ICW Inhibition): 28.101

SMILES: COc1cc(OC)nc(NS(=O)(=O)c2ccc(NC(=S)NC(=O)C3CCCC3)cc2)n1 [AD4-11536]
ICW Screen (ICW Inhibition): 27.431

SMILES: CCc1nnc(NS(=O)(=O)c2ccc(NC(=S)NC(=O)/C=C/c3ccccc3)cc2)s1 [AD4-11861]
ICW Screen (ICW Inhibition): 30.242

SMILES: Cc1cc(NS(=O)(=O)c2ccc(NC(=S)NC(=O)/C=C/c3cccs3)cc2)no1 [AD4-11863]
ICW Screen (ICW Inhibition): 27.36

SMILES: CCc1nnc(NS(=O)(=O)c2ccc(NC(=S)NC(=O)/C=C/c3ccc(C)cc3)cc2)s1 [AD4-11879]
ICW Screen (ICW Inhibition): 25.689

SMILES: COc1ccc(NS(=O)(=O)c2ccc(NC(=S)NC(=O)/C=C/c3ccccc3)cc2)nn1 [AD4-11888]
ICW Screen (ICW Inhibition): 26.355

SMILES: CN1CCN(S(=O)(=O)c2ccc(NC(=S)NC(=O)C3CCCC3)cc2)CC1 [AD4-11973]
ICW Screen (ICW Inhibition): 27.176

SMILES: CC(C)(C)NS(=O)(=O)c1ccc(NC(=S)NC(=O)C2CCC2)cc1 [AD4-11976]
ICW Screen (ICW Inhibition): 26.918

SMILES: CN(C1CCCCC1)S(=O)(=O)c1ccc(NC(=S)NC(=O)C2CC2)cc1 [AD4-11986]
ICW Screen (ICW Inhibition): 25.368

SMILES: CN(Cc1ccccc1)S(=O)(=O)c1ccc(NC(=S)NC(=O)C2CCCC2)cc1 [AD4-12039]
ICW Screen (ICW Inhibition): 29.977

SMILES: CC(C)C(=O)NC(=S)Nc1ccc(S(=O)(=O)N(C)Cc2ccccc2)cc1 [AD4-12051]
ICW Screen (ICW Inhibition): 28.852

SMILES: C=CCN(CC=C)S(=O)(=O)c1ccc(NC(=S)NC(=O)/C=C/c2ccccc2)cc1 [AD4-12092]
ICW Screen (ICW Inhibition): 25.019

SMILES: Cc1ccc(NS(=O)(=O)c2ccc(NC(=S)NC(=O)CCc3ccccc3)cc2)cc1C [AD4-12103]
ICW Screen (ICW Inhibition): 26.212

SMILES: C=CCN(CC=C)S(=O)(=O)c1ccc(NC(=S)NC(=O)/C=C/c2ccc(F)cc2)cc1 [AD4-12157]
ICW Screen (ICW Inhibition): 26.73

SMILES: Cc1cc(C)nc(NS(=O)(=O)c2ccc(NC(=S)NC(=O)C3CCCC3)cc2)n1 [AD4-12163]
ICW Screen (ICW Inhibition): 26.671

SMILES: O=C(NC(=S)Nc1ccc(S(=O)(=O)N2CCc3ccccc32)cc1)C1CCCC1 [AD4-12291]
ICW Screen (ICW Inhibition): 25.191

SMILES: Cc1cc(-c2ccccc2)nc(Nc2nc(C)c3cc(C)c(C)cc3n2)n1 [compound 11309]
ICW Avg: 37.00 | ICW 1: 33.31 | ICW 2: 40.70

SMILES: CCCc1c[nH]c(Nc2nc(C)c3ccccc3n2)nc1=O [compound 12662]
ICW Avg: 25.21 | ICW 1: 21.64 | ICW 2: 28.79

Second part, the molecule after the results:

ICW Screen (ICW Inhibition): 29.295
SMILES: CC(=O)NC(=S)Nc1ccc(S(=O)(=O)N2CCc3ccccc32)cc1 [AD4-10103]

ICW Screen (ICW Inhibition): 25.347
SMILES: COc1ccc(CC(=O)NC(=S)Nc2ccc(S(=O)(=O)NCCc3ccccc3)cc2)cc1 [AD4-10622]

ICW Screen (ICW Inhibition): 28.127
SMILES: COc1cc(NS(=O)(=O)c2ccc(NC(=S)NC(=O)CCc3ccc(F)cc3)cc2)ncn1 [AD4-11384]

ICW Screen (ICW Inhibition): 26.301
SMILES: COc1ccc(CC(=O)NC(=S)Nc2ccc(S(=O)(=O)Nc3nc(C)cc(C)n3)cc2)cc1 [AD4-11395]

ICW Screen (ICW Inhibition): 25.557
SMILES: Cc1ccc(OCC(=O)NC(=S)Nc2ccc(S(=O)(=O)N3CCOCC3)cc2)c(Br)c1 [AD4-11401]

ICW Screen (ICW Inhibition): 26.851
SMILES: COc1ccc(CC(=O)NC(=S)Nc2ccc(S(=O)(=O)N3CCOCC3)cc2)cc1 [AD4-11406]

ICW Screen (ICW Inhibition): 30.052
SMILES: CN1CCN(S(=O)(=O)c2ccc(NC(=S)NC(=O)c3ccccc3)cc2)CC1 [AD4-11420]

ICW Screen (ICW Inhibition): 28.422
SMILES: CN1CCN(S(=O)(=O)c2ccc(NC(=S)NC(=O)CCc3ccccc3)cc2)CC1 [AD4-11424]

ICW Screen (ICW Inhibition): 26.098
SMILES: COc1ccc(NS(=O)(=O)c2ccc(NC(=S)NC(=O)C3CCCC3)cc2)cc1 [AD4-11523]

ICW Screen (ICW Inhibition): 27.18
SMILES: COc1ccc(NS(=O)(=O)c2ccc(NC(=S)NC(=O)C(C)(C)C)cc2)cc1 [AD4-11994]

ICW Screen (ICW Inhibition): 25.611
SMILES: CCOc1ccc(NS(=O)(=O)c2ccc(NC(=S)NC(=O)CC(C)C)cc2)cc1 [AD4-12014]

ICW Screen (ICW Inhibition): 27.713
SMILES: CC(=O)NS(=O)(=O)c1ccc(NC(=S)NC(=O)Cc2cccc3ccccc23)cc1 [AD4-12071]

ICW Screen (ICW Inhibition): 25.058
SMILES: COc1ccc(CC(=O)NC(=S)Nc2ccc(S(=O)(=O)NC(C)(C)C)cc2)cc1 [AD4-12133]

ICW Screen (ICW Inhibition): 26.967
SMILES: O=C(CCc1ccccc1)NC(=S)Nc1ccc(S(=O)(=O)N2CCOCC2)cc1 [AD4-12147]
